Source: the supplement of paper PMC10307832

Columns and labels:
Experiment in all cases: relative viability (nuclei count vs DMSO), 5 days (fraction); higher = more cells survive
[1] = compound: Cc1cc(Nc2cc(N3CCN(C)CC3)nc(Sc3ccc(NC(=O)C4CC4)cc3)n2)n[nH]1 [Tozasertib] + COc1cc2c(Oc3ccc(NC(=O)C4(C(=O)Nc5ccc(F)cc5)CC4)cc3F)ccnc2cc1OCCCN1CCOCC1 [Foretinib] (partner 0.25 µM)
In short: (§1)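 Lung cancer cell lines in 1536-well plates got either a single drug or a fixed anchor-drug dose together with five library-drug doses (not always all listed) in √10 steps, by pin tool, on the day after seeding. Nuclei were counted after 5 days, and relative viability is the treated-to-vehicle ratio of nuclei counts. Values are medians of duplicate plates.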

[2] = compound: Cc1cc(Nc2cc(N3CCN(C)CC3)nc(Sc3ccc(NC(=O)C4CC4)cc3)n2)n[nH]1 [Tozasertib] + CC(=O)Nc1cccc(-n2c(=O)n(C3CC3)c(=O)c3c(Nc4ccc(I)cc4F)n(C)c(=O)c(C)c32)c1 [Trametinib] (partner 0.02 µM)
In short: as §1

[3] = compound: Cc1cc(Nc2cc(N3CCN(C)CC3)nc(Sc3ccc(NC(=O)C4CC4)cc3)n2)n[nH]1 [Tozasertib] + Nc1ncn([C@H]2C[C@H](O)[C@@H](CO)O2)c(=O)n1 [Decitabine] (partner 2 µM)
In short: as §1

[4] = compound: Cc1cc(Nc2cc(N3CCN(C)CC3)nc(Sc3ccc(NC(=O)C4CC4)cc3)n2)n[nH]1 [Tozasertib] + Cc1nc(NC(=O)N2CCC[C@H]2C(N)=O)sc1-c1ccnc(C(C)(C)C(F)(F)F)c1 [Alpelisib] (partner 2 µM)
In short: as §1

[5] = compound: Cc1cc(Nc2cc(N3CCN(C)CC3)nc(Sc3ccc(NC(=O)C4CC4)cc3)n2)n[nH]1 [Tozasertib] + C[C@]1(O)C[C@@H](c2nc(-c3ccc4ccc(-c5ccccc5)nc4c3)c3c(N)nccn32)C1 [Linsitinib] (partner 1 µM)
In short: as §1

Row | Cell Line | relative viability ([1]; first compound 0.01265 µM) | relative viability ([1]; first compound 0.04 µM) | relative viability ([1]; first compound 0.1265 µM) | relative viability ([2]; first compound 0.004 µM) | relative viability ([2]; first compound 0.01265 µM) | relative viability ([2]; first compound 0.04 µM) | relative viability ([2]; first compound 0.1265 µM) | relative viability ([3]; first compound 0.004 µM) | relative viability ([3]; first compound 0.01265 µM) | relative viability ([3]; first compound 0.04 µM) | relative viability ([3]; first compound 0.1265 µM) | relative viability ([4]; first compound 0.004 µM) | relative viability ([4]; first compound 0.01265 µM) | relative viability ([4]; first compound 0.04 µM) | relative viability ([4]; first compound 0.1265 µM) | relative viability ([5]; first compound 0.004 µM) | relative viability ([5]; first compound 0.01265 µM) | relative viability ([5]; first compound 0.04 µM) | relative viability ([5]; first compound 0.1265 µM) | relative viability ([1]; first compound 0.004 µM)
1 | HCC-366 | 0.912 | 0.63 | 0.0962 | 0.304 | 0.323 | 0.385 | 0.15 | 0.32 | 0.314 | 0.314 | 0.169 | 0.37 | 0.476 | 0.558 | 0.13 | 0.766 | 0.6 | 0.755 | 0.101 | 
2 | HCC-827 | 1.03 | 1.13 | 0.758 | 0.493 | 0.481 | 0.663 | 0.512 | 0.207 | 0.283 | 0.305 | 0.264 | 1.03 | 0.931 | 1.06 | 0.954 | 1.02 | 1 |  | 0.84 | 0.996
3 | HOP-62 | 1.07 | 1.06 | 0.915 | 0.356 | 0.401 | 0.401 | 0.372 | 0.213 | 0.234 | 0.194 | 0.196 | 1.05 | 0.887 | 0.937 | 0.937 | 1.05 | 0.876 |  | 1.09 | 0.953
4 | LC-2-ad |  | 1.04 | 0.609 | 0.942 | 0.816 | 0.934 | 0.743 | 0.87 | 0.792 | 0.798 |  | 0.881 | 0.82 | 1.02 | 0.354 | 0.906 | 0.82 | 0.684 | 0.329 | 0.812
5 | LCLC-97TM1 | 0.895 | 0.95 | 0.695 | 0.211 | 0.22 | 0.239 | 0.17 | 0.222 | 0.232 | 0.235 | 0.185 |  | 0.247 | 0.32 | 0.207 |  | 0.204 | 0.155 | 0.163 | 1.03
6 | LCLC-103H | 0.78 | 0.713 | 0.416 | 0.659 | 0.71 | 0.675 |  | 0.689 | 0.621 | 0.775 | 0.683 | 0.817 | 0.895 | 0.952 | 0.994 | 1.07 | 1.03 | 0.987 | 1.34 | 0.81
7 | LK-2 | 0.927 | 1.34 | 0.267 | 0.859 | 0.646 | 0.739 | 0.353 | 0.428 | 0.291 | 0.363 | 0.141 | 1.33 |  | 1.12 | 0.306 | 0.639 | 0.541 | 0.442 | 0.272 | 1.51
8 | LOU-NH91 | 0.923 | 1.02 | 0.918 | 0.692 | 0.811 | 0.838 | 0.793 | 0.681 | 0.791 | 0.812 | 0.762 |  | 0.736 | 0.731 | 0.694 | 0.573 | 0.954 | 1.03 | 0.947 | 
9 | LU99A | 0.629 | 0.796 | 0.487 | 0.545 | 0.504 | 0.494 | 0.373 | 0.968 | 0.859 | 0.785 | 0.504 | 0.648 | 0.507 | 0.463 | 0.267 | 0.655 | 0.448 | 0.412 | 0.292 | 0.798
10 | LXF-289 | 0.963 | 0.912 | 0.739 | 0.69 | 0.625 | 0.685 | 0.571 | 0.378 | 0.405 | 0.337 | 0.262 |  | 1.05 | 0.955 | 0.615 | 0.994 | 0.883 | 0.868 | 0.554 | 1.06
11 | NCI-H23 | 0.887 | 0.848 | 0.331 | 0.356 | 0.435 | 0.426 | 0.223 | 0.332 | 0.298 | 0.276 | 0.242 | 0.638 | 0.578 | 0.781 | 0.361 | 0.653 | 0.519 | 0.55 | 0.291 | 1.02
12 | NCI-H522 |  |  |  | 0.825 |  | 0.671 | 0.711 | 0.655 | 0.746 | 0.647 | 0.622 |  |  |  |  |  |  |  |  | 
13 | NCI-H1650 | 1.28 | 1.1 | 0.879 | 0.482 | 0.58 | 0.624 | 0.175 | 0.351 | 0.364 | 0.404 | 0.307 |  |  |  |  |  |  |  |  | 1.26
14 | NCI-H1703 | 0.409 | 0.337 | 0.327 |  |  |  |  |  |  |  |  | 0.364 | 0.357 | 0.445 | 0.209 | 1.26 | 0.833 | 0.808 | 0.626 | 0.36
15 | NCI-H1792 |  |  |  | 0.481 | 0.412 | 0.754 | 0.35 | 0.601 | 0.534 | 0.482 | 0.505 | 0.613 | 0.596 | 0.817 | 0.618 | 0.461 | 0.398 | 0.528 | 0.331 | 
16 | NCI-H2170 | 0.591 |  | 0.907 | 0.896 | 0.904 | 0.94 | 0.818 | 0.487 | 0.446 | 0.474 | 0.425 | 0.721 | 0.769 | 0.838 | 0.679 |  |  |  |  | 0.985
17 | NCI-H2228 | 0.803 | 0.851 | 0.356 | 0.485 | 0.503 | 0.513 | 0.345 |  |  |  |  | 0.806 |  | 0.556 | 0.434 | 0.526 |  | 0.766 | 0.557 | 0.947
18 | NCI-H2342 | 0.997 | 1.02 | 0.908 | 0.77 | 0.969 | 0.849 | 0.897 | 0.678 | 0.738 | 0.723 | 0.766 |  |  |  |  |  |  |  |  | 0.949
19 | SW 900 | 0.825 | 1.08 | 0.638 | 0.653 | 0.798 | 0.911 | 0.509 | 0.43 | 0.442 | 0.347 | 0.375 |  |  |  |  |  |  |  |  | 0.914
